Data as given in paper PMC2673432 (Nucleic Acids Research, 2009).

Molecular target: human L3MBTL2 4-MBT-repeat domain (4MBT, residues 170–625) (Homo sapiens, UniProt Q969R5)
Test: Isothermal titration calorimetry
Format: binding
Details: ITC, 25°C, pH 7.5, 200 mM NaCl; values in Supplementary Figure 3

Chain of human L3MBTL2 4-MBT-repeat domain (4MBT, residues 170–625) (Q969R5 170-625): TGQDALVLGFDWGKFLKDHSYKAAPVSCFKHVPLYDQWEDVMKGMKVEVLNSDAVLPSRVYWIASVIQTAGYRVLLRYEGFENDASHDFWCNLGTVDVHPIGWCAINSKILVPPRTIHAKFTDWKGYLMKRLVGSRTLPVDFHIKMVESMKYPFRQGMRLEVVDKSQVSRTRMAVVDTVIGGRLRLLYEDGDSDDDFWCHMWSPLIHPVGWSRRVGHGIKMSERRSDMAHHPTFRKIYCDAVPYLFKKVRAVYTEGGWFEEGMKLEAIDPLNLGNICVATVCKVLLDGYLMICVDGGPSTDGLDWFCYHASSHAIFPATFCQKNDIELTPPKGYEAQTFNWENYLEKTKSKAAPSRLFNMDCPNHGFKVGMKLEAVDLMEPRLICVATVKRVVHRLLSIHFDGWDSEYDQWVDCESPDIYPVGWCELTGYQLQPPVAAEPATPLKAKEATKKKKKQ

With `CNCCCC[C@H](N)C(=O)O` [free mono-methylated lysine, mono-methylated lysine] as the compound, how does the “Relative binding affinity (in words)” value read?
Its value is “binds mono- and di-methylated lysine centrally located in a peptide more tightly than free mono-methylated lysine”.
